Legend:
Format in all cases: cell-based, rat
TNFα = TNFα release induced by LPS in mixed glial cells (ELISA); conditions: LPS 1 μg/mL
Experimental: (§1) TNFα is considered one of the most important pro-inflammatory cytokines. […] The production of TNFα induced by LPS was reduced by 33% at 10 μM and by 50% at 30 μM. […] To further confirm the anti-inflammatory potential of compound 5c we measured the expression of thre NOX2 enzyme, since this isoform has been widely described as being specific tomicroglial cells. As depicted in Fig. 6F, LPS (1 μg/mL) stimulation of primary glial cultures during 24 h increased the expression of NOX2 by 65.3% (p < 0.01) compared to basal conditions.
(§2) Figure 6 Nitrites (A), TNFα (B), iNOS (C) and NOX activity (E) blockade (D) and NOX2 production (F) by 5c in primary glial cultures stimulated with LPS (1 μg/mL), HO-1 expression induced by this compound after 24 h. […] NOX activity was measured after 4 h co-treatment with LPS and compound 5c. […]
Tumor necrosis factor-alpha (TNFα) concentrations were measured by specific quantitative sandwich ELISA kits (Preprotech, R&D Systems-bioNova, Madrid, Spain) following manufacturer instructions. TNFα levels in supernatant samples, obtained after treatments with culture media (Basal), LPS or LPS co-incubated with increasing concentrations of compound 5c, were measured following manufacturer instructions. […] Light absorption was measured in a microplate reader (Labtech, Offenburg, Germany). […]

iNOS = iNOS expression in LPS-stimulated glial cultures (western blot); conditions: 30 μM, LPS 1 μg/mL
Experimental: as §1, §2
(§3) After treatment, mixed glial cells were washed with cold PBS and lysed in 100 μl ice-cold lysis buffer (1% Nonident P-40, 10% glycerol, 137 mM NaCl, 20 mM Tris HCl pH 7.5, 1 μg/ml leupeptin, 1 mM phenylmethylsulfonyl fluoride, 20 mM NaF, 1 mM sodium pyrophosphate, and 1 mM Na3VO4). […] Peroxidase-conjugated secondary antibodies (1:10000) were used to detect proteins by enhanced chemiluminescence detected by Advance Western-blotting Detection Kit (GE Healthcare, Barcelona, Spain). […]

HO-1 = HO-1 expression in glial cultures (western blot); conditions: 30 μM, 24 h
Experimental: as §1, §2, §3

NOX2 = NOX2 expression in LPS-stimulated primary glial cultures (western blot); conditions: 30 μM, LPS 1 μg/mL 24 h (LPS alone 65.3%)
Experimental: as §1, §2, §3

SMILES: COc1cccc(C2C(C#N)=C(N)Oc3n[nH]c(C)c32)c1 (centres unmarked) [Compound 5c, 6-Amino-4-(3-methoxyphenyl)-3-methyl-2,4-dihydropyrano[2,3-c]pyrazole-5-carbonitrile]
- Reduction of TNFα production induced by LPS (TNFα; 10 μM): 33%
- Reduction of TNFα production induced by LPS (TNFα; 30 μM): 50%
- Reduction of iNOS expression (iNOS): almost completely
- HO-1 expression increase in glial cultures (HO-1): 2.3 times
- NOX2 expression increase compared to basal conditions in presence of LPS (NOX2): 11.1%

— PMC5374710, “Discovery of the first dual GSK3β inhibitor/Nrf2 inducer. A new multitarget therapeutic strategy for Alzheimer’s disease” (Scientific Reports, 2017)
